Reference: PubChem BioAssay AID328 (DTP/NCI, 2004)
“And” between values parts separate entries of the source, which are not always exact repeats. Equal values may be shown once. Inconclusive results and toxic doses are left out.

Tested on: BDF1 mice, P388 leukemia ip, median survival T/C
Assay: NCI In Vivo Anticancer Drug Screen. Data for tumor model P388 Leukemia (intraperitoneal) in B6D2F1 (BDF1) mice
Settings: endpoint: median survival time, higher = longer survival
In short: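 Transplantable tumour in mice; compound vs vehicle dosing; survival scored; ratio of treated to control reported.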

[1] = dose: 50.0 mg/kg/injection, schedule: Q01DX009 (ip), vehicle: saline with Tween-80
[2] = dose: 100.0 mg/kg/injection, schedule: Q01DX009 (ip), vehicle: saline with Tween-80
[3] = dose: 200.0 mg/kg/injection, schedule: Q01DX009 (ip), vehicle: saline with Tween-80
[4] = dose: 12.5 mg/kg/injection, schedule: Q01DX009 (ip), vehicle: saline with Tween-80
[5] = dose: 25.0 mg/kg/injection, schedule: Q01DX009 (ip), vehicle: saline with Tween-80
[6] = dose: 400.0 mg/kg/injection, schedule: Q01DX009 (ip), vehicle: saline with Tween-80
[7] = dose: 50.0 mg/kg/injection, schedule: Q04DX003 (ip), vehicle: other
[8] = dose: 100.0 mg/kg/injection, schedule: Q04DX003 (ip), vehicle: other
[9] = dose: 50.0 mg/kg/injection, schedule: Q04DX003 (ip), vehicle: saline with Tween-80
[10] = dose: 100.0 mg/kg/injection, schedule: Q04DX003 (ip), vehicle: saline with Tween-80
[11] = dose: 25.0 mg/kg/injection, schedule: Q01DX009 (ip), vehicle: saline
[12] = dose: 25.0 mg/kg/injection, schedule: Q04DX003 (ip), vehicle: saline
[13] = dose: 50.0 mg/kg/injection, schedule: Q04DX003 (ip), vehicle: saline
[14] = dose: 200.0 mg/kg/injection, schedule: Q04DX003 (ip), vehicle: saline with Tween-80

With `Cc1ccc2c(c1)NC(c1ccc(C(=O)O)cc1)c1cccn1-2` (centres undefined) the T/C [1] was 86 % of control, the T/C [2] was 89 % of control and the T/C [3] was 91 % of control.

For `c1ccc2c(c1)C1c3ccccc3C2C2COCC12` (centres undefined), the T/C (dose: 25.0 mg/kg/injection, schedule: Q01DX009 (ip), vehicle: Klucel (hydroxypropylcellulose) (HPC)) was 105 % of control, the T/C (dose: 50.0 mg/kg/injection, schedule: Q01DX009 (ip), vehicle: Klucel (hydroxypropylcellulose) (HPC)) was 110 % of control and the T/C (dose: 75.0 mg/kg/injection, schedule: Q04DX003 (ip), vehicle: Klucel (hydroxypropylcellulose) (HPC)) was 108 % of control. The T/C (dose: 100.0 mg/kg/injection, schedule: Q01DX009 (ip), vehicle: Klucel (hydroxypropylcellulose) (HPC)) was 100 % of control, the T/C (dose: 150.0 mg/kg/injection, schedule: Q04DX003 (ip), vehicle: Klucel (hydroxypropylcellulose) (HPC)) was 104 % of control and the T/C (dose: 300.0 mg/kg/injection, schedule: Q04DX003 (ip), vehicle: Klucel (hydroxypropylcellulose) (HPC)) was 86 % of control.

`CN=S(=O)(OCCCCCCCCCOS(=O)(=NC)c1ccc(C)cc1)c1ccc(C)cc1` (centres undefined) was tested, and the T/C [4] was 108 % of control and the T/C [1] was 117 % of control.

With `O=C1/C(=C/c2cccc([N+](=O)[O-])c2)CCc2ccccc21` the T/C (dose: 100.0 mg/kg/injection, schedule: Q04DX003 (ip), vehicle: Klucel (hydroxypropylcellulose) (HPC)) was 100 % of control, the T/C (dose: 200.0 mg/kg/injection, schedule: Q04DX003 (ip), vehicle: Klucel (hydroxypropylcellulose) (HPC)) was 100 % of control and the T/C (dose: 400.0 mg/kg/injection, schedule: Q01DX009 (ip), vehicle: Klucel (hydroxypropylcellulose) (HPC)) was 104 % of control. The T/C (dose: 400.0 mg/kg/injection, schedule: Q04DX003 (ip), vehicle: Klucel (hydroxypropylcellulose) (HPC)) was 95 % of control.

For `CCO/C=C1\SC(=S)N(c2ccco2)C1=O`, the T/C (dose: 5.56 mg/kg/injection, schedule: Q01DX009 (ip), vehicle: saline with Tween-80) was 104 % of control, the T/C (dose: 8.33 mg/kg/injection, schedule: Q01DX009 (ip), vehicle: saline with Tween-80) was 104 % of control and the T/C [4] was 108 % of control. For the same molecule, the T/C (dose: 18.7 mg/kg/injection, schedule: Q01DX009 (ip), vehicle: saline with Tween-80) was 116 % of control, the T/C (dose: 22.0 mg/kg/injection, schedule: Q01DX009 (ip), vehicle: saline with Tween-80) was 150 % of control and the T/C (dose: 30.0 mg/kg/injection, schedule: Q01DX009 (ip), vehicle: saline) was 116 % of control. For the same molecule, the T/C (dose: 44.0 mg/kg/injection, schedule: Q01DX009 (ip), vehicle: saline) was 100 % of control, the T/C [1] was 100 % of control and the T/C (dose: 66.0 mg/kg/injection, schedule: Q01DX009 (ip), vehicle: saline) was 116 % of control. The T/C (dose: 100.0 mg/kg/injection, schedule: Q01DX009 (ip), vehicle: saline) was 116 % of control.

`O=c1[nH]c(=O)n(C2CC(O)C(CO)O2)cc1Br` (centres undefined) was tested, and the T/C (dose: 100.0 mg/kg/injection, schedule: Q04DX003 (ip), vehicle: saline sonified) was 100 % of control, the T/C (dose: 200.0 mg/kg/injection, schedule: Q04DX003 (ip), vehicle: saline sonified) was 100 % of control and the T/C (dose: 400.0 mg/kg/injection, schedule: Q04DX003 (ip), vehicle: saline sonified) was 100 % of control.

In the case of `CCCNC(=S)NNC(=O)c1ccncc1`, the T/C (dose: 6.25 mg/kg/injection, schedule: Q01DX009 (ip), vehicle: saline with Tween-80) is reported as 98 % of control, the T/C [4] is reported as 97 % of control and the T/C [5] is reported as 100 % of control. The T/C [1] was 90 % of control and the T/C [2] was 100 % of control.

In the case of `S=C(Nc1cc2c3c(c1)CCCN3CCC2)Nc1cc2c3c(c1)CCCN3CCC2`, the T/C (dose: 100.0 mg/kg/injection, schedule: Q01DX001 (ip), vehicle: saline with Tween-80) is reported as 109 % of control, the T/C (dose: 200.0 mg/kg/injection, schedule: Q01DX001 (ip), vehicle: saline with Tween-80) is reported as 100 % of control and the T/C (dose: 400.0 mg/kg/injection, schedule: Q01DX001 (ip), vehicle: saline with Tween-80) is reported as 95 % of control.

`CC1(C)c2ccccc2C(C)(C(Cl)(Cl)Cl)c2ccc(Cl)cc21` (centres undefined) was tested, and the T/C [1] was 96 % of control, the T/C [2] was 99 % of control and the T/C [3] was 92 % of control. For the same molecule, the T/C [6] was 97 % of control.

With `CCCC1CC[N-]CC1.CCCC1CC[N-]CC1.CCCC1CC[N-]CC1.CCCC1CC[N-]CC1.[Cl][Rh][Cl]` the T/C (dose: 0.35 mg/kg/injection, schedule: Q01DX009 (ip), vehicle: saline) was 122 % of control, the T/C (dose: 0.53 mg/kg/injection, schedule: Q01DX009 (ip), vehicle: saline) was 123 % of control and the T/C (dose: 0.8 mg/kg/injection, schedule: Q01DX009 (ip), vehicle: saline) was 119 % of control. For the same molecule, the T/C (dose: 3.0 mg/kg/injection, schedule: Q01DX009 (ip), vehicle: Klucel (hydroxypropylcellulose) (HPC)) was 86 % of control.

With `CCCCCCCCCCCC[n+]1ccc2ccccc2c1` the T/C (dose: 1.0 mg/kg/injection, schedule: Q01DX010 (ip), vehicle: saline) was 115 % of control.

With `O=C(O)CCC(=O)Nc1ccccc1C(F)(F)F` the T/C [2] was 100 % of control, the T/C [3] was 109 % of control and the T/C [6] was 90 % of control.

With `CC(C)C1(C(=O)NNC(=O)CCCc2ccc(N(CCCl)CCCl)cc2)OC2(O)CCCCCN2C1=O` (centres undefined) the T/C [7] was 175 % of control and the T/C [8] was 220 % of control.

With `O=S(=O)(C1=CCCCC1)C1=CCCCC1` the T/C (dose: 25.0 mg/kg/injection, schedule: Q04DX003 (ip), vehicle: saline with Tween-80) was 104 % of control, the T/C [9] was 99 % of control and the T/C [10] was 88 % of control and 100 % of control.

With `Clc1nn2cnnc2c2ccccc12` the T/C (dose: 5.0 mg/kg/injection, schedule: Q01DX009 (ip), vehicle: saline) was 101 % of control and the T/C (dose: 10.0 mg/kg/injection, schedule: Q01DX009 (ip), vehicle: saline) was 101 % of control.

For `COc1cc2c(cc1OC)C(CCN1C(=O)c3ccccc3C1=O)=NCC2`, the T/C (dose: 12.5 mg/kg/injection, schedule: Q01DX009 (ip), vehicle: saline) was 91 % of control, the T/C [11] was 87 % of control and the T/C [12] was 100 % of control. The T/C [13] was 95 % of control.

With `O=S(=O)(Nc1cc(S(=O)(=O)c2ccccc2)c(O)c2ccccc12)c1ccccc1` the T/C (dose: 75.0 mg/kg/injection, schedule: Q01DX001 (ip), vehicle: saline with Tween-80) was 90 % of control, the T/C (dose: 150.0 mg/kg/injection, schedule: Q01DX001 (ip), vehicle: saline with Tween-80) was 90 % of control and the T/C (dose: 300.0 mg/kg/injection, schedule: Q01DX001 (ip), vehicle: saline with Tween-80) was 100 % of control.

In the case of `CN(N=O)P(=O)(Nc1ccccc1)Nc1ccccc1`, the T/C (dose: 25.0 mg/kg/injection, schedule: Q04DX003 (ip), vehicle: other) is reported as 100 % of control, the T/C [7] is reported as 100 % of control and the T/C [8] is reported as 95 % of control.

`CCn1c(C)nc2cc(C(N)=O)ccc21` was tested, and the T/C [9] was 95 % of control, the T/C [10] was 90 % of control and the T/C [14] was 113 % of control.

With `COC(=O)CCC(=O)Nc1ccc(C(=O)CBr)cc1` the T/C (dose: 25.0 mg/kg/injection, schedule: Q04DX003 (ip), vehicle: Klucel (hydroxypropylcellulose) (HPC)) was 107 % of control and the T/C (dose: 50.0 mg/kg/injection, schedule: Q04DX003 (ip), vehicle: Klucel (hydroxypropylcellulose) (HPC)) was 97 % of control.

In the case of `O=C1CCC(=O)N1CCC(=O)N(C(=O)NC1CCCCC1)C1CCCCC1`, the T/C [4] is reported as 100 % of control, the T/C [5] is reported as 101 % of control and the T/C [1] is reported as 104 % of control and 111 % of control. The T/C [2] was 101 % of control, the T/C [10] was 118 % of control and the T/C [3] was 100 % of control and 123 % of control. The T/C [14] was 118 % of control, the T/C [6] was 111 % of control and the T/C (dose: 400.0 mg/kg/injection, schedule: Q04DX003 (ip), vehicle: saline with Tween-80) was 113 % of control.

`Cn1c(O)c(C=N)c(=O)n(C)c1=O` was tested, and the T/C (dose: 12.0 mg/kg/injection, schedule: Q01DX009 (ip), vehicle: saline) was 118 % of control, the T/C [11] was 109 % of control and the T/C [12] was 92 % of control. For the same molecule, the T/C (dose: 50.0 mg/kg/injection, schedule: Q01DX009 (ip), vehicle: saline) was 100 % of control and the T/C [13] was 100 % of control.
